According to ChEMBL document CHEMBL4425153, “Matched and mixed cap derivatives in the tetracyclic indole class of HCV NS5A inhibitors” (Bioorg Med Chem Lett, 2016):
Changes are numbered by the printed parent chain.

Key:
[1] = biological target: T1, Nonstructural protein 5A (Hepatitis C virus) (UniProt Q5L478); experiment: Inhibition of wild type HCV genotype 2b NS5A assessed as reduction in viral RNA level by cell based real time PCR method; details: Hepatitis C virus subtype 2b
T1 sequence (whole entry): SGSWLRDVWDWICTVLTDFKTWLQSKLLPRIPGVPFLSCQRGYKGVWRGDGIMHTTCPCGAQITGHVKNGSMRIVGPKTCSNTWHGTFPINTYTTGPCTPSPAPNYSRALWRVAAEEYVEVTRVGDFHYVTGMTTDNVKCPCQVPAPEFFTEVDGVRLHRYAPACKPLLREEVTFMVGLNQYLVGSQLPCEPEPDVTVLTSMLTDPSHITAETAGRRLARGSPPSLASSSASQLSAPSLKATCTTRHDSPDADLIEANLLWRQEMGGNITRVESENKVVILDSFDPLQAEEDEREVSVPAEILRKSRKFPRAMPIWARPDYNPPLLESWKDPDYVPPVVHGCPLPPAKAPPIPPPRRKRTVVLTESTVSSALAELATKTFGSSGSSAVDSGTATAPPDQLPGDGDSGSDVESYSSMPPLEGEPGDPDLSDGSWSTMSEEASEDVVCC

[2] = tested on: T2, Nonstructural protein 5A (Hepatitis C virus), Q5L478 [Y93H]; experiment: Inhibition of HCV genotype 1a NS5A Y93H mutant assessed as reduction in viral RNA level by cell based real time PCR method; details: Hepatitis C virus subtype 1a
T2 sequence (whole entry): T1 sequence (whole entry) with Y93H

[3] = biological target: T1, Nonstructural protein 5A (Hepatitis C virus); experiment: Inhibition of wild type HCV genotype 1a NS5A assessed as reduction in viral RNA level by cell based real time PCR method; details: Hepatitis C virus subtype 1a
[4] = tested on: Nonstructural protein 5A (Hepatitis C virus), Q5L478 [UNDEFINED MUTATION]; experiment: Inhibition of HCV genotype 1a NS5A L31V mutant assessed as reduction in viral RNA level by cell based real time PCR method; details: Hepatitis C virus subtype 1a

## COC(=O)N[C@H](C(=O)N1CCC[C@H]1c1ncc(-c2ccc3c(c2)O[C@@H](c2ccccc2)n2c-3cc3cc(-c4cnc([C@@H]5CCCN5C(=O)[C@@H](NC(=O)OC)C5CCC(F)(F)CC5)[nH]4)ccc32)[nH]1)C1CCC(F)(F)CC1
[1]
  EC90: 77 nM
[2]
  EC90: 39 nM
[3]
  EC90: 0.03 nM
[4]
  EC90: 0.65 nM

## CC[C@H](C)[C@H](NC(=O)OC)C(=O)N1CCC[C@H]1c1ncc(-c2ccc3c(c2)O[C@@H](c2ccccc2)n2c-3cc3cc(-c4cnc([C@@H]5CCCN5C(=O)[C@@H](NC(=O)OC)C(C)C)[nH]4)ccc32)[nH]1
[1]
  EC90: 50 nM
[2]
  EC90: 77 nM
[3]
  EC90: 0.06 nM
[4]
  EC90: 4.3 nM

## COC(=O)N[C@@H](CC1CCOCC1)C(=O)N1CCC[C@H]1c1ncc(-c2ccc3c(c2)O[C@@H](c2ccccc2)n2c-3cc3cc(-c4cnc([C@@H]5CCCN5C(=O)[C@H](CC5CCOCC5)NC(=O)OC)[nH]4)ccc32)[nH]1
[1]
  EC90: 18 nM
[2]
  EC90: 40 nM
[3]
  EC90: 0.1 nM
[4]
  EC90: 0.77 nM

## COC(=O)NC1(C(=O)N2CCC[C@H]2c2ncc(-c3ccc4c(c3)O[C@@H](c3ccccc3)n3c-4cc4cc(-c5cnc([C@@H]6CCCN6C(=O)C6(NC(=O)OC)CCOCC6)[nH]5)ccc43)[nH]2)CCOCC1
[1]
  EC90: > 100 nM
[2]
  EC90: > 100 nM
[3]
  EC90: 1.4 nM
[4]
  EC90: > 100 nM

## O=C([C@H]1CCCO1)N1CCC[C@H]1c1ncc(-c2ccc3c(c2)O[C@@H](c2ccccc2)n2c-3cc3cc(-c4cnc([C@@H]5CCCN5C(=O)[C@H]5CCCO5)[nH]4)ccc32)[nH]1
[1]
  EC90: > 100 nM
[2]
  EC90: > 100 nM
[3]
  EC90: 1 nM
[4]
  EC90: > 100 nM

## O=C([C@@H](c1ccccc1)N1CCCC1)N1CCC[C@H]1c1ncc(-c2ccc3c(c2)O[C@@H](c2ccccc2)n2c-3cc3cc(-c4cnc([C@@H]5CCCN5C(=O)[C@@H](c5ccccc5)N5CCCC5)[nH]4)ccc32)[nH]1
[1]
  EC90: 13 nM
[2]
  EC90: > 100 nM
[3]
  EC90: 3.9 nM
[4]
  EC90: 3.9 nM

## CC[C@H](NC(=O)OC)C(=O)N1CCC[C@H]1c1ncc(-c2ccc3c(c2)O[C@@H](c2ccccc2)n2c-3cc3cc(-c4cnc([C@@H]5CCCN5C(=O)[C@H](CC)NC(=O)OC)[nH]4)ccc32)[nH]1
[1]
  EC90: 65 nM
[2]
  EC90: > 100 nM
[3]
  EC90: 0.016 nM
[4]
  EC90: 1.6 nM

## COC(=O)N[C@H](C(=O)N1CCC[C@H]1c1ncc(-c2ccc3c(c2)O[C@@H](c2ccccc2)n2c-3cc3cc(-c4cnc([C@@H]5CCCN5C(=O)[C@@H](NC(=O)OC)C5CCCC5)[nH]4)ccc32)[nH]1)C1CCCC1
[1]
  EC90: 52 nM
[2]
  EC90: > 100 nM
[3]
  EC90: 0.014 nM
[4]
  EC90: 4.1 nM

## COC(=O)N[C@H](C(=O)N1CCC[C@H]1c1ncc(-c2ccc3c(c2)O[C@@H](c2ccccc2)n2c-3cc3cc(-c4cnc([C@@H]5CCCN5C(=O)[C@@H](NC(=O)OC)[C@@H](C)OC)[nH]4)ccc32)[nH]1)[C@@H](C)OC
[1]
  EC90: 17 nM
[2]
  EC90: > 100 nM
[3]
  EC90: 0.019 nM

## COC(=O)N[C@H](C(=O)N1CCC[C@H]1c1ncc(-c2ccc3c(c2)O[C@@H](c2ccccc2)n2c-3cc3cc(-c4cnc([C@@H]5CCCN5C(=O)[C@@H](NC(=O)OC)[C@@H](C)OC)[nH]4)ccc32)[nH]1)C(C)C
[1]
  EC90: 35 nM
[2]
  EC90: 54 nM
[3]
  EC90: 0.039 nM

## COC(=O)N[C@H](C(=O)N1CCC[C@H]1c1ncc(-c2ccc3c(c2)cc2n3[C@H](c3ccccc3)Oc3cc(-c4cnc([C@@H]5CCCN5C(=O)[C@@H](NC(=O)OC)[C@@H](C)OC)[nH]4)ccc3-2)[nH]1)C(C)C
[1]
  EC90: 5 nM
[2]
  EC90: 50 nM
[3]
  EC90: 0.062 nM
[4]
  EC90: 1.1 nM

## COC(=O)N[C@@H](C)C(=O)N1CCC[C@H]1c1ncc(-c2ccc3c(c2)O[C@@H](c2ccccc2)n2c-3cc3cc(-c4cnc([C@@H]5CCCN5C(=O)[C@H](C)NC(=O)OC)[nH]4)ccc32)[nH]1
[1]
  EC90: > 100 nM
[2]
  EC90: > 100 nM
[3]
  EC90: 0.042 nM
[4]
  EC90: 6.4 nM

## COCC[C@H](NC(=O)OC)C(=O)N1CCC[C@H]1c1ncc(-c2ccc3c(c2)O[C@@H](c2ccccc2)n2c-3cc3cc(-c4cnc([C@@H]5CCCN5C(=O)[C@H](CCOC)NC(=O)OC)[nH]4)ccc32)[nH]1
[1]
  EC90: 91 nM
[2]
  EC90: 46 nM
[3]
  EC90: 0.061 nM
[4]
  EC90: 2.1 nM

## COC(=O)N[C@H](C(=O)N1CCC[C@H]1c1ncc(-c2ccc3c(c2)O[C@@H](c2ccccc2)n2c-3cc3cc(-c4cnc([C@@H]5CCCN5C(=O)[C@@H](NC(=O)OC)C5CCCCC5)[nH]4)ccc32)[nH]1)C1CCCCC1
[1]
  EC90: > 100 nM
[2]
  EC90: > 100 nM
[3]
  EC90: 0.1 nM
[4]
  EC90: 11 nM

## CC[C@H](C)[C@H](NC(=O)OC)C(=O)N1CCC[C@H]1c1ncc(-c2ccc3c(c2)O[C@@H](c2ccccc2)n2c-3cc3cc(-c4cnc([C@@H]5CCCN5C(=O)[C@@H](NC(=O)OC)[C@@H](C)CC)[nH]4)ccc32)[nH]1
[1]
  EC90: > 100 nM
[2]
  EC90: > 100 nM
[3]
  EC90: 0.011 nM
[4]
  EC90: 1.8 nM

## COC(=O)N[C@H](C(=O)N1CCC[C@H]1c1ncc(-c2ccc3c(c2)O[C@@H](c2ccccc2)n2c-3cc3cc(-c4cnc([C@@H]5CCCN5C(=O)C5(NC(=O)OC)CCCCC5)[nH]4)ccc32)[nH]1)C(C)C
[1]
  EC90: > 100 nM
[2]
  EC90: > 100 nM
[3]
  EC90: 0.035 nM
[4]
  EC90: 14.7 nM

## COC(=O)N[C@H](C(=O)N1CCC[C@H]1c1nc(-c2ccc3c(c2)O[C@@H](c2ccccc2)n2c-3cc3cc(-c4c[nH]c([C@@H]5CCCN5C(=O)[C@@H](NC(=O)OC)C(C)C)n4)ccc32)c[nH]1)C(C)C
[1]
  EC90: 11 nM
[2]
  EC90: 28 nM
[3]
  EC90: 0.006 nM
[4]
  EC90: 1 nM

## COC(=O)N[C@@H](C(=O)N1CCC[C@H]1c1ncc(-c2ccc3c(c2)O[C@@H](c2ccccc2)n2c-3cc3cc(-c4cnc([C@@H]5CCCN5C(=O)[C@H](NC(=O)OC)C5CCOCC5)[nH]4)ccc32)[nH]1)C1CCOCC1
[1]
  EC90: > 100 nM
[2]
  EC90: > 100 nM
[3]
  EC90: 8.6 nM
[4]
  EC90: > 100 nM

## CN(C)[C@@H](C(=O)N1CCC[C@H]1c1ncc(-c2ccc3c(c2)O[C@@H](c2ccccc2)n2c-3cc3cc(-c4cnc([C@@H]5CCCN5C(=O)[C@@H](c5ccc(F)cc5)N(C)C)[nH]4)ccc32)[nH]1)c1ccc(F)cc1
[1]
  EC90: > 100 nM
[2]
  EC90: > 100 nM
[3]
  EC90: 0.98 nM
[4]
  EC90: > 100 nM

## CCN(CC)[C@@H](C(=O)N1CCC[C@H]1c1ncc(-c2ccc3c(c2)cc2n3[C@H](c3ccccc3)Oc3cc(-c4cnc([C@@H]5CCCN5C(=O)[C@@H](NC(=O)OC)C(C)C)[nH]4)ccc3-2)[nH]1)c1ccccc1
[1]
  EC90: 4 nM
[2]
  EC90: 44 nM
[3]
  EC90: 0.045 nM

## COC(=O)N[C@H](C(=O)N1CCC[C@H]1c1ncc(-c2ccc3c(c2)O[C@@H](c2ccccc2)n2c-3cc3cc(-c4cnc([C@@H]5CCCN5C(=O)[C@@H](NC(=O)OC)C5CCC(F)(F)CC5)[nH]4)ccc32)[nH]1)C(C)C
[1]
  EC90: 23 nM
[2]
  EC90: 34 nM
[3]
  EC90: 0.018 nM
[4]
  EC90: 0.89 nM

## COC(=O)N[C@H](C(=O)N1CCC[C@H]1c1ncc(-c2ccc3c(c2)O[C@@H](c2ccccc2)n2c-3cc3cc(-c4cnc([C@@H]5CCCN5C(=O)[C@@H](NC(=O)OC)C5CC5)[nH]4)ccc32)[nH]1)C1CC1
[1]
  EC90: > 100 nM
[2]
  EC90: > 100 nM
[3]
  EC90: 0.028 nM
[4]
  EC90: > 100 nM

## CCN(CC)[C@@H](C(=O)N1CCC[C@H]1c1ncc(-c2ccc3c(c2)O[C@@H](c2ccccc2)n2c-3cc3cc(-c4cnc([C@@H]5CCCN5C(=O)[C@@H](c5ccccc5)N(CC)CC)[nH]4)ccc32)[nH]1)c1ccccc1
[1]
  EC90: 3.1 nM
[2]
  EC90: > 100 nM
[3]
  EC90: 0.27 nM
[4]
  EC90: 0.6 nM
